Data: ChEMBL document CHEMBL4342522 (J Med Chem, 2020)
The source made the active and inactive calls. The rule behind the calls is not given here.

Columns and labels:
SKM-1 [1] = test: Antitumor activity against human SKM1 cells xenografted in SCID mouse assessed as tumor growth inhibition at 60 mg/kg, po bid by caliper method; type: functional, organism-based
SKM-1 [2] = test: Antiproliferative activity against human SKM1 cells assessed as reduction in cell viability after 5 days by CellTiter-Glo assay; type: functional, cell-based; conditions: SKM-1, 120 h
[3] = molecular target: T1, Bromodomain-containing protein 4 (Homo sapiens, UniProt O60885); test: biochemical; type: cell-based
Description: Inhibition of human N-terminal His6 tagged BRD4 BD1 (57 to 168) residues expressed in Escherichia coli BL21(DE3) cells after 1 hr by TR-FRET assay

[4] = molecular target: T1, Bromodomain-containing protein 4; test: Inhibition of human N-terminal His6 tagged BRD4 BD2 (352 to 457) residues expressed in Escherichia coli BL21(DE3) cells after 1 hr by TR-FRET assay
[5] = Unbound hepatic clearance in mouse liver microsomes; type: ADME, Microsome
NCI-H1299 = test: Antiproliferative activity against human H1299 cells assessed as reduction in cell viability after 5 days by CellTiter-Glo assay; type: functional, cell-based; conditions: NCI-H1299, 120 h
[6] = Unbound hepatic clearance in rat liver microsomes; type: ADME, Microsome
[7] = Unbound hepatic clearance in human liver microsomes; type: ADME, Microsome
[8] = Permeability in dog MDCK cells by PAMPA; type: ADME, cell-based, Canis lupus familiaris; conditions: read-out: permeability

IC50 (SKM-1 [2])	Ki [3]	Ki [4]	CL free [5]	IC50 (NCI-H1299)	CL free [6]	CL free [7]	Papp [8]	SMILES	inhibition (SKM-1 [1])
50 nM	140 nM	1.8 nM	2170 mL/min/kg	1300 nM	633 mL/min/kg	450 mL/min/kg	15.9 ×10⁻⁶ cm/s	CCNC(=O)c1cc2c(-c3cc(S(=O)(=O)CC)ccc3-n3ccc4ccccc43)cn(C)c(=O)c2[nH]1	
28 nM	470 nM	5.8 nM	900 mL/min/kg	1200 nM	200 mL/min/kg	75 mL/min/kg	15.2 ×10⁻⁶ cm/s	CCNC(=O)c1cc2c(-c3cc(S(=O)(=O)CC)ccc3Oc3c(C)cccc3C(F)(F)F)cn(C)c(=O)c2[nH]1	
11 to 12 nM	140 nM	1.2 nM	550 mL/min/kg	790 nM	650 mL/min/kg	91.7 mL/min/kg	10.7 ×10⁻⁶ cm/s	CCNC(=O)c1cc2c(-c3cc(S(C)(=O)=O)ccc3Oc3c(C)cccc3C)cn(C)c(=O)c2[nH]1	
31 nM	6.6 nM	0.7 nM	< 103 mL/min/kg	110 nM	188 mL/min/kg	50 mL/min/kg	3.18 ×10⁻⁶ cm/s	CCNC(=O)c1cc2c(-c3cc(S(=O)(=O)CC)ccc3Oc3ccc(F)cc3F)cn(C)c(=O)c2[nH]1	

The remaining lines, values behind:

SMILES	IC50 (SKM-1 [2])	Ki [3]	Ki [4]	CL free [5]	IC50 (NCI-H1299)	CL free [6]	CL free [7]	Papp [8]	inhibition (SKM-1 [1])
CCS(=O)(=O)Nc1ccc(Oc2ccc(F)cc2F)c(-c2cn(C)c(=O)c3[nH]ccc23)c1									Active
CCNC(=O)c1cc2c(-c3cc(S(=O)(=O)CC)ccc3Oc3c(C)cccc3C(F)F)cn(C)c(=O)c2[nH]1	24 nM	160 nM	2.1 nM	900 mL/min/kg	880 nM	200 mL/min/kg	75 mL/min/kg	15.2 ×10⁻⁶ cm/s	
CCNC(=O)c1cc2c(-c3cc(S(=O)(=O)CC)ccc3Oc3c(C)cccc3Br)cn(C)c(=O)c2[nH]1	9.8 nM	45 nM	1 nM	1880 mL/min/kg	730 nM	1350 mL/min/kg	267 mL/min/kg	10.5 ×10⁻⁶ cm/s	
CCNC(=O)c1cc2c(-c3ccccc3Cc3c(C)cccc3C)cn(C)c(=O)c2[nH]1	150 nM	2100 nM	25 nM	38300 mL/min/kg	4200 nM	21700 mL/min/kg	5330 mL/min/kg	3.81 ×10⁻⁶ cm/s	
